The values below come from patent publication US20240059682A1, “THYROID HORMONE RECEPTOR BETA AGONIST COMPOUNDS” (Terns Pharmaceuticals, Inc., priority 2021, published 2024).

In data set [1] the target is THR-β/RXR-α (Homo sapiens (Human), UniProt P10828). The data set is described as follows: THR/RXR heterodimer assay (THR-β/RXR-α). Particulars: RXR heterodimer assay; normalized to T3 activity. The format is biochemical.
Data set [2] can be described thus: Pharmacokinetics study in rats. The format is in vivo, male Sprague-Dawley (SD) rats. As to conditions: male SD rats; for AUC(0-inf) / half-life / clearance / Vd / bioavailability / AUC(0-t) / Cmax: Sprague-Dawley, rat, plasma; for clearance: mean±SD, read-out: plasma clearance (CL); for Vd: read-out: volume of distribution (Vdss). The procedure: Examples 12 and 14 were administered via a 30-minute intravenous (IV) infusion at approximately 1 mg/kg and orally at approximately 3 mg/kg to male Sprague-Dawley (SD) rats. The concentrations of Examples 12 and 14 in rat plasma was determined with an LC-MS/MS method.

Data set [3] is described as follows: Tissue distribution in rats. The format is in vivo, male Sprague-Dawley (SD) rats. Particulars: 2 hours post-dose, male SD rats; for Kp at 2 h / concentration at 2 h: Sprague-Dawley, rat. How it is done: Examples 12 and 14 were administered via a 30-minute intravenous (IV) infusion at approximately 2 mg/kg to jugular vein cannulated male Sprague-Dawley (SD) rats. All animals were euthanized by CO2 inhalation at 2 hours post-dose. The concentrations of Examples 12 and 14 in rat plasma and liver, heart and kidney tissues were determined with an LC-MS/MS method.

The target of data set [4] is TR beta-LBD (Homo sapiens (Human), UniProt P10828). Particulars: TR-FRET; derived from T3-selectivity normalized data. For orientation: In TR-FRET formats the signal depends on donor and acceptor labels being close together.
Chain of TR beta-LBD (P10828 whole entry, looked up, the tested form may be a part): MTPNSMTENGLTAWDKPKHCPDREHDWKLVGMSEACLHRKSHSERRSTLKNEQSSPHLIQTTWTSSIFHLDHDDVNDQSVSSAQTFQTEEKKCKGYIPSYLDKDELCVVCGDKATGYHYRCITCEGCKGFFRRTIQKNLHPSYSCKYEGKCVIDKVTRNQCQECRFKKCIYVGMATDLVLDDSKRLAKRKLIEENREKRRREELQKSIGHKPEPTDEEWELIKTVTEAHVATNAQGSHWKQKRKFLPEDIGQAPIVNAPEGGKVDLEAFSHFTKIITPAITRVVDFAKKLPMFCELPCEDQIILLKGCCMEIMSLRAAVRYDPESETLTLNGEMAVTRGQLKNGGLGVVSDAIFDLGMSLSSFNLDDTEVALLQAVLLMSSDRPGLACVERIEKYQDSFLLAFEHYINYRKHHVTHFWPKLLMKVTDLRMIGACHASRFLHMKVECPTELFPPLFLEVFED

As usually defined, the AUC(0-inf) is total exposure, with the tail of the curve extrapolated. Low values mean low exposure, high ones high exposure. In general, half-life refers to how long it takes for the measured level to halve. Broadly, the clearance is the rate of elimination divided by the concentration. For orientation: bioavailability means dose-corrected exposure relative to a reference, in per cent. Low values mean poor availability, high ones good availability. Broadly, the AUC(0-t) is the area under the concentration-time curve up to a stated or last time point. A low value points to low exposure. As a reminder, the Cmax is the highest concentration seen after dosing.

Read-outs that look alike come from different tables or passages of the source.

Chain of THR-β/RXR-α (P10828 202-461): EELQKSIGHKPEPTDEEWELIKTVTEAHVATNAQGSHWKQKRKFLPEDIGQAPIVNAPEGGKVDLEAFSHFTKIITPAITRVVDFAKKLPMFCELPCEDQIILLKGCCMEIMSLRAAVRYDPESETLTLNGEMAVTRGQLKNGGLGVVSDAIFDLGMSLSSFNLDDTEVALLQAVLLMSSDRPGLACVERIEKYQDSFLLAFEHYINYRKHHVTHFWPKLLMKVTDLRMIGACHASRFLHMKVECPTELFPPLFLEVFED
Chain of THR-β/RXR-α (P19793 225-462 partner): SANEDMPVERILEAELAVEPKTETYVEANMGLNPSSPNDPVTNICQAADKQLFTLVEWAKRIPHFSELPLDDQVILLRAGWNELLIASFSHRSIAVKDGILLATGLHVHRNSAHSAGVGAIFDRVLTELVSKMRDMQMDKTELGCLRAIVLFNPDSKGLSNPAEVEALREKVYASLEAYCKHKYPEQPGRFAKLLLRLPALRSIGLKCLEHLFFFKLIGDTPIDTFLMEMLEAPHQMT
Chain of THR-β/RXR-α (Q15596 679-703 partner): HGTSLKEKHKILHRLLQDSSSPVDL

In data set [1], `O=C(Nc1cc(Cl)c(Oc2ccc3[nH]c(=O)n(C4CC4)c3c2)c(Cl)c1)c1noc(=O)[nH]1` [Example 1, N-(3,5-dichloro-4-((3-cyclopropyl-2-oxo-2,3-dihydro-1H-benzo[d]imidazol-5-yl)oxy)phenyl)-5-oxo-4,5-dihydro-1,2,4-oxadiazole-3-carboxamide] yielded a THRß-Selectivity of 5.1.
`COc1nc2ccc(Oc3c(Cl)cc(-n4nc(C#N)c(=O)[nH]c4=O)cc3Cl)cc2n1C1CC1` [Example 2, 2-(3,5-dichloro-4-((1-cyclopropyl-2-methoxy-1H-benzo[d]imidazol-6-yl)oxy)phenyl)-3,5-dioxo-2,3,4,5-tetrahydro-1,2,4-triazine-6-carbonitrile] yielded a THRß-Selectivity in data set [1] of 16.9.
Still for that read-out and setting: for `COc1nc2ccc(Oc3c(Cl)cc(NC(=O)c4noc(=O)[nH]4)cc3Cl)cc2n1C` [Example 3, N-(3,5-dichloro-4-((2-methoxy-1-methyl-1H-benzo[d]imidazol-6-yl)oxy)phenyl)-5-oxo-4,5-dihydro-1,2,4-oxadiazole-3-carboxamide] the value was 9.7; for `CC(C)n1c(=O)[nH]c2ccc(Oc3c(Cl)cc(-n4nc(C#N)c(=O)[nH]c4=O)cc3Cl)cc21` [Example 5, 2-(3,5-dichloro-4-((3-isopropyl-2-oxo-2,3-dihydro-1H-benzo[d]imidazol-5-yl)oxy)phenyl)-3,5-dioxo-2,3,4,5-tetrahydro-1,2,4-triazine-6-carbonitrile], 5.8; for `COc1nc2ccc(Oc3c(Cl)cc(NC(=O)c4noc(=O)[nH]4)cc3Cl)cc2n1C(C)C` [Example 6, N-(3,5-dichloro-4-((1-isopropyl-2-methoxy-1H-benzo[d]imidazol-6-yl)oxy)phenyl)-5-oxo-4,5-dihydro-1,2,4-oxadiazole-3-carboxamide], 16.9.
In data set [1], `COc1nc2ccc(Oc3c(Cl)cc(NC(=O)c4noc(=O)[nH]4)cc3Cl)cc2n1C1CC1` [Example 7, N-(3,5-dichloro-4-((1-cyclopropyl-2-methoxy-1H-benzo[d]imidazol-6-yl)oxy)phenyl)-5-oxo-4,5-dihydro-1,2,4-oxadiazole-3-carboxamide] had a THRß-Selectivity of 21.2.
Still for that read-out and setting: then `N#Cc1nn(-c2cc(Cl)c(Oc3ccc4[nH]c(=O)n(C5CC5)c4c3)c(Cl)c2)c(=O)[nH]c1=O` [Example 8, 2-(3,5-dichloro-4-((3-cyclopropyl-2-oxo-2,3-dihydro-1H-benzo[d]imidazol-5-yl)oxy)phenyl)-3,5-dioxo-2,3,4,5-tetrahydro-1,2,4-triazine-6-carbonitrile], with 7.2.
On the same count and under the same terms, for `CC(C)(C)n1c(=O)[nH]c2ccc(Oc3c(Cl)cc(NC(=O)c4noc(=O)[nH]4)cc3Cl)cc21` [Example 10, N-(4-((3-(tert-butyl)-2-oxo-2,3-dihydro-1H-benzo[d]imidazol-5-yl)oxy)-3,5-dichlorophenyl)-5-oxo-4,5-dihydro-1,2,4-oxadiazole-3-carboxamide] the value was 7.7.
Same read-out and setting: for `COc1nc2ccc(Oc3c(Cl)cc(NC(=O)c4noc(=O)[nH]4)cc3Cl)cc2n1C1(C)CC1` [Example 11, N-(3,5-dichloro-4-((2-methoxy-1-(1-methylcyclopropyl)-1H-benzo[d]imidazol-6-yl)oxy)phenyl)-5-oxo-4,5-dihydro-1,2,4-oxadiazole-3-carboxamide] the value was 17.7.
For `COc1nc2ccc(Oc3c(Cl)cc(-n4nc(C#N)c(=O)[nH]c4=O)cc3Cl)cc2n1C1(C)CC1` [Example 12, 2-(3,5-dichloro-4-((2-methoxy-1-(1-methylcyclopropyl)-1H-benzo[d]imidazol-6-yl)oxy)phenyl)-3,5-dioxo-2,3,4,5-tetrahydro-1,2,4-triazine-6-carbonitrile], in data set [2] (IV infusion 1.09 mg/kg), the AUC(0-inf) is 3780 ± 704 ng·h/mL, the half-life is 2.67 ± 0.53 h, the clearance is 4.51 ± 0.883 mL/min/kg and the Vd was 0.638 ± 0.218 L/kg. Moreover, the bioavailability in data set [2] (oral 3.0 mg/kg vs IV 1.09 mg/kg) turned out to be 95.2%. In data set [2] (oral 3.0 mg/kg), the AUC(0-inf) is 10800 ± 5630 ng·h/mL, the exposure AUC(0-t) was 10800 ± 5630 ng·h/mL, the highest level (Cmax) was 2020 ± 793 ng/mL and the “time post-dose at which Cmax was reached” value amounted to 3.33 ± 1.15 h. The compound also gave a THRß-Selectivity in data set [1] of 18.7. Also, in data set [3] (heart/plasma, IV infusion 2.0 mg/kg, read-out: tissue/plasma ratio heart/plasma), the Kp at 2 h was 1.65 ± 2.33. Also, the concentration at 2 h in data set [3] (heart, IV infusion 2.0 mg/kg, read-out: tissue concentration in heart) came to 995 ± 1430 ng/g. In data set [3] (kidney/plasma, IV infusion 2.0 mg/kg, read-out: tissue/plasma ratio kidney/plasma), the Kp at 2 h was 1.01 ± 0.212. In data set [3] (kidney, IV infusion 2.0 mg/kg, read-out: tissue concentration in kidney), the concentration at 2 h was determined as 558 ± 103 ng/g. For the same compound, in data set [3] (liver/plasma, IV infusion 2.0 mg/kg, read-out: tissue/plasma ratio liver/plasma), the Kp at 2 h came out at 5.62 ± 1.09. For the same compound, the concentration at 2 h in data set [3] (liver, IV infusion 2.0 mg/kg, mean±SD, read-out: tissue concentration in liver) is 3040 ± 350 ng/g. In data set [3] (plasma, IV infusion 2.0 mg/kg, read-out: plasma concentration), the concentration at 2 h was 569 ± 145 ng/mL.
In data set [1], `CC1(n2c(=O)[nH]c3ccc(Oc4c(Cl)cc(NC(=O)c5noc(=O)[nH]5)cc4Cl)cc32)CC1` [Example 13, N-(3,5-dichloro-4-((3-(1-methylcyclopropyl)-2-oxo-2,3-dihydro-1H-benzo[d]imidazol-5-yl)oxy)phenyl)-5-oxo-4,5-dihydro-1,2,4-oxadiazole-3-carboxamide] registered a THRß-Selectivity of 11.0.
With `CC1(n2c(=O)[nH]c3ccc(Oc4c(Cl)cc(-n5nc(C#N)c(=O)[nH]c5=O)cc4Cl)cc32)CC1` [Example 14, 2-(3,5-dichloro-4-((3-(1-methylcyclopropyl)-2-oxo-2,3-dihydro-1H-benzo[d]imidazol-5-yl)oxy)phenyl)-3,5-dioxo-2,3,4,5-tetrahydro-1,2,4-triazine-6-carbonitrile], in data set [2] (IV infusion 1.09 mg/kg), the AUC(0-inf) is 550 ± 19.6 ng·h/mL, the half-life was 1.51 ± 0.54 h, the clearance was determined as 30.3 ± 1.07 mL/min/kg and the Vd amounted to 1.28 ± 0.387 L/kg. In data set [2] (oral 3.18 mg/kg vs IV 1.09 mg/kg), this compound returned a bioavailability of 11.5%. Also, in data set [2] (oral 3.18 mg/kg), the area under the curve AUC(0-inf) came to 190 ± 28.7 ng·h/mL, the area under the curve AUC(0-t) worked out at 178 ± 25.5 ng·h/mL, the maximum concentration (Cmax) was determined as 31 ± 5.92 ng/mL and the “time post-dose at which Cmax was reached” value is 4.0 ± 2.0 h. Further, the THRß-Selectivity in data set [1] is listed as 12.0. Further, in data set [3] (IV infusion 2.16 mg/kg), the “tissue concentration in heart” value is recorded as “below the limit of detection”. Besides, the Kp at 2 h in data set [3] (kidney/plasma, IV infusion 2.16 mg/kg, read-out: tissue/plasma ratio kidney/plasma) amounted to 6.25 ± 2.13. In addition, the concentration at 2 h in data set [3] (kidney, IV infusion 2.16 mg/kg, read-out: tissue concentration in kidney) stood at 94 ± 23.5 ng/g. In addition, the Kp at 2 h in data set [3] (liver/plasma, IV infusion 2.16 mg/kg, read-out: tissue/plasma ratio liver/plasma) was 29 ± 24.9. In data set [3] (liver, IV infusion 2.16 mg/kg, read-out: tissue concentration in liver), the concentration at 2 h worked out at 413 ± 303 ng/g. Further, in data set [3] (plasma, IV infusion 2.16 mg/kg, read-out: plasma concentration), the concentration at 2 h was 15.5 ± 3.7 ng/mL.
On to `COc1nc2ccc(Oc3c(Cl)cc(-n4nc(C#N)c(=O)[nH]c4=O)cc3Cl)cc2n1C(C)(C)C` [Example 15, 2-(4-((1-(tert-butyl)-2-methoxy-1H-benzo[d]imidazol-6-yl)oxy)-3,5-dichlorophenyl)-3,5-dioxo-2,3,4,5-tetrahydro-1,2,4-triazine-6-carbonitrile], for which the THRß-Selectivity in data set [1] is 10.3.
The compound `CC(C)(C)n1c(=O)[nH]c2ccc(Oc3c(Cl)cc(-n4nc(C#N)c(=O)[nH]c4=O)cc3Cl)cc21` [Example 16, 2-(4-((3-(tert-butyl)-2-oxo-2,3-dihydro-1H-benzo[d]imidazol-5-yl)oxy)-3,5-dichlorophenyl)-3,5-dioxo-2,3,4,5-tetrahydro-1,2,4-triazine-6-carbonitrile] came in with a THRß-Selectivity in data set [1] of 9.8.
The compound `O=C(Nc1cc(Cl)c(Oc2ccc3[nH]c(=O)n(C4(C(F)F)CC4)c3c2)c(Cl)c1)c1noc(=O)[nH]1` [Example 17, N-(3,5-dichloro-4-((3-(1-(difluoromethyl)cyclopropyl)-2-oxo-2,3-dihydro-1H-benzo[d]imidazol-5-yl)oxy)phenyl)-5-oxo-4,5-dihydro-1,2,4-oxadiazole-3-carboxamide] yielded a THRß-Selectivity in data set [1] of 10.1.
Compound `N#Cc1nn(-c2cc(Cl)c(Oc3ccc4[nH]c(=O)n(C5(C(F)F)CC5)c4c3)c(Cl)c2)c(=O)[nH]c1=O` [Example 18, 2-(3,5-dichloro-4-((3-(1-(difluoromethyl)cyclopropyl)-2-oxo-2,3-dihydro-1H-benzo[d]imidazol-5-yl)oxy)phenyl)-3,5-dioxo-2,3,4,5-tetrahydro-1,2,4-triazine-6-carbonitrile] returned a THRß-Selectivity in data set [1] of 8.2.
As to `Cn1c(=O)[nH]c2ccc(Oc3c(Cl)cc(NC(=O)c4noc(=O)[nH]4)cc3Cl)cc21` [Example 19, N-(3,5-dichloro-4-((3-methyl-2-oxo-2,3-dihydro-1H-benzo[d]imidazol-5-yl)oxy)phenyl)-5-oxo-4,5-dihydro-1,2,4-oxadiazole-3-carboxamide], the THRß-Selectivity is recorded as 5.3 in data set [1] and 14.1 in data set [4].
